This is an account of results in US8283373B2, “Inhibitors of cytosolic phospholipase A2” (Pfizer Inc., priority 2005, dated 2012).

“Also recorded” adds a separate entry of the source.

Test [1] has as its system Ascaris suum antigen-induced bronchoconstriction and AHR. Briefly: Sheep model of antigen-induced early and late-phase bronchoconstriction and AHR. It is filed as in vivo. As for the experimental part:
In addition to the allergen induced pulmonary inflammation models in rodents, allergen induced changes in lung function are often evaluated in allergic sheep. […] Studies performed in this animal model present strong evidence that the release of arachidonic acid metabolites plays an important role in the development of late bronchial responses to antigen challenge (See Abraham, W. M., et al, Respiration. 1989; 56:48-56). Thus, the compound of Example 10 was evaluated for effects on allergen induced changes in lung function In a sheep model of asthma.
Allergen-induced reversible airway narrowing and AHR are two hallmark features of allergic asthma that can be examined in vivo in a sheep model of asthma. Studies performed in this animal model present strong evidence that the release of arachidonic acid metabolites plays an important role in the development of late bronchial responses to antigen challenge (See Abraham, W. M., et al., Respiration. 1989; 56:48-56). The release of leukotrienes through the LO pathway during the acute bronchial constriction after inhalation of Ascaris suum antigen represents the key factor for the initiation of the subsequent events, namely the late-phase response and the bronchial hyperreactivity. […] In addition, oral administration of a dual LTD4/TXB2 inhibitor can inhibit both the early and late-phase response, as well as AHR to carbachol and histamine (See Abraham, W. M., et al., J Pharmacol Exp Ther. 1988; 247:1004-1011).
The compound of Example 10 was administered at 3 mg/kg BID (PO) 24 h prior to challenge, 2 h prior to challenge and 8 hr post challenge. The mean % increase in airway resistance for 3 individual sheep over the ensuing 8 h period was determined.
The following day, airway hyperresponsiveness (AHR) was assessed in these same treated sheep by determining the cumulative carbachol concentration that increased specific lung resistance by 400%. […] In an extended dosing regimen, compound of Example 10 was administered at 3 mg/kg PO BID for 4 days before challenge, 2 hours before challenge on the fifth day and 8 hr post challenge.

The test system of a further test is carrageenan paw edema. Kind of test: Carrageenan paw edema assay. Particulars: oral. Type of test: in vivo. The procedure: The carrageenan paw edema assay is an acute model of inflammation that is particularly useful for in vivo assessment of compounds that effect the production of prostaglandins. In particular, NSAIDs inhibit edema in a characteristic dose response fashion in this model, and the activity of NSAIDs in this model correlates well with the activity observed in man (See Mukherjee A, et al., Inflamm Res. 1996; 45:531-540). Therefore, the compound of Example 10 was tested in the carrageenan paw edema model.
(In the carrageenan paw model, swelling and tenderness develop within hours.)

The subject of another test is serum thromboxane B2. Briefly: Thromboxane B2 levels in the ApoE KO mouse model. It is filed as in vivo. To be noted: ApoE KO mice, 3.3 mg/g chow for two days; vehicle 76.1±17.3. As for the experimental part: Blood was collected through the retro-orbital siunus and left to coagulate at 37° C. for one hour. Serum was then isolated and assayed for thromboxane B2 by ELISA.
In a separate experiment, ApoE KO mice were dosed with vehicle or the compound of Example 25 at 10 mg/kg by oral gavage. Blood was collected through the retro-orbital siunus and left to coagulate at 37° C. for one hour. Serum was then isolated and assayed for thromboxane B2 by ELISA.

The next test has as its system TXB2. Kind of test: Rat Whole Blood Assay (A23187-stimulated TXB2). It is filed as cell-based. To be noted: Rattus norvegicus; A23187 5 μM. In outline:
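Heparinized male Sprague-Dawley rat blood pre-incubated 15 min at 37 °C with compound or DMSO, then stimulated with 5 μM (final) A23187 for 10 min at 37 °C. Stopped with 20 mM EDTA; TXB2 in methanol-extracted plasma measured by ELISA.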

Where [2] appears, read: 3 mg/kg BID PO 24 h and 2 h prior to and 8 hr post challenge.
The mark [3] stands for this setting: extended regimen: 3 mg/kg PO BID 4 days before challenge, 2 hours before and 8 hr post.

The term ED50 denotes the dose at which the effect has come halfway, by size or by number of responders. What is called IC50 is the concentration needed to halve the response being measured. A higher IC50 goes with lower potency. As to `O=C(O)c1ccc(CCCc2c(CCNS(=O)(=O)Cc3ccccc3C(F)(F)F)n(C(c3ccccc3)c3ccccc3)c3ccc(Cl)cc23)cc1` [Example 10, 4-(3-{5-chloro-1-(diphenylmethyl)-2-[2-({[2-(trifluoromethyl)benzyl]sulfonyl}amino)ethyl]-1H-indol-3-yl}propyl)benzoic acid], in test [1] (setting [2]), the “airway hyperresponsiveness (AHR) to carbachol” value is given as “complete blockade” and the “late asthmatic response (airway resistance)” value was “Complete blockade”. In test [1] (setting [3]), the “AHR to aerosolized carbachol” value is given as “complete blockade”, the early asthmatic response result was “modest but statistically significant inhibition” and the late-phase response result was “complete blockade”. In the test on carrageenan paw edema (2 hours before carrageenan, doses as low as 3 mg/kg), the Paw edema entry is recorded as “statistically significantly decreased; also recorded: significantly inhibited edema”. Besides, the 50% effective dose (ED50) in the test on carrageenan paw edema (based on a maximal inhibition of 50%, read-out: approximate ED50 of paw edema inhibition) was roughly 7.5 mg/kg. Further, the “serum Thromboxane concentration” value in the test with serum thromboxane B2 came out at 1.4 ± 0.7 ng/mL. The compound also registered an IC50 with TXB2 of 0.02 µM.
